Results from patent publication US10189816B2, “Substituted pyridines as inhibitors of human immunodeficiency virus replication” (priority 2015, dated 2019).
Like-named read-outs stand apart in the source and are kept apart here.

System: NL-RLuc virus
Assay: Inhibition of HIV replication (NL-RLuc reporter virus in MT-2 cells, luciferase readout)
Type: cell-based
Settings: Human immunodeficiency virus 1, MT2, 120 h
Outline: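 Antiviral EC50 came from luciferase signal after 5-day multicycle replication of NL-RLuc virus in MT-2 cells with serially diluted compound (RPMI 1640, 10% heat-inactivated FBS), fitted by the median effect equation over at least 2 experiments.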

Structure (SMILES) | EC50 (read-out: Activity) [µM] | EC50 (read-out: EC50 μM) [µM]
Cc1nc(C)c([C@H](OC(C)(C)C)C(=O)O)c(N2CCC(C)(C)CC2)c1-c1ccc2c(c1)CCN(Cc1cc(F)ccc1C(F)(F)F)C2 [Compound 66, (S)-2-(tert-butoxy)-2-(4-(4,4-dimethylpiperidin-1-yl)-5-(2-(5-fluoro-2-(trifluoromethyl)benzyl)-1,2,3,4-tetrahydroisoquinolin-6-yl)-2,6-dimethylpyridin-3-yl)acetic acid] | < 0.1 | 0.013
Cc1nc(C)c([C@H](OC(C)(C)C)C(=O)O)c(N2CCC(C)(C)CC2)c1-c1ccc2c(c1)CCN(Cc1ccc(F)c(C(F)(F)F)c1)C2 [Compound 67, (S)-2-(tert-butoxy)-2-(4-(4,4-dimethylpiperidin-1-yl)-5-(2-(4-fluoro-3-(trifluoromethyl)benzyl)-1,2,3,4-tetrahydroisoquinolin-6-yl)-2,6-dimethylpyridin-3-yl)acetic acid] | < 0.1 | 
Cc1nc(C)c([C@H](OC(C)(C)C)C(=O)O)c(N2CCC(C)(C)CC2)c1-c1ccc2c(c1)CCN(Cc1cc(F)cc(C(F)(F)F)c1)C2 [Compound 68, (S)-2-(tert-butoxy)-2-(4-(4,4-dimethylpiperidin-1-yl)-5-(2-(3-fluoro-5-(trifluoromethyl)benzyl)-1,2,3,4-tetrahydroisoquinolin-6-yl)-2,6-dimethylpyridin-3-yl)acetic acid] | < 0.1 | 
Cc1nc(C)c([C@H](OC(C)(C)C)C(=O)O)c(N2CCC(C)(C)CC2)c1-c1ccc2c(c1)CCN(Cc1ccc(F)cc1C(F)(F)F)C2 [Compound 69, (S)-2-(tert-butoxy)-2-(4-(4,4-dimethylpiperidin-1-yl)-5-(2-(4-fluoro-2-(trifluoromethyl)benzyl)-1,2,3,4-tetrahydroisoquinolin-6-yl)-2,6-dimethylpyridin-3-yl)acetic acid] | < 0.1 | 
Cc1nc(C)c([C@H](OC(C)(C)C)C(=O)O)c(N2CCC(C)(C)CC2)c1-c1ccc2c(c1)CCN(Cc1cc(C(F)(F)F)ccc1F)C2 [Compound 70, (S)-2-(tert-butoxy)-2-(4-(4,4-dimethylpiperidin-1-yl)-5-(2-(2-fluoro-5-(trifluoromethyl)benzyl)-1,2,3,4-tetrahydroisoquinolin-6-yl)-2,6-dimethylpyridin-3-yl)acetic acid] | < 0.1 | 
Cc1cc(CN2CCc3cc(-c4c(C)nc(C)c([C@H](OC(C)(C)C)C(=O)O)c4N4CCC(C)(C)CC4)ccc3C2)ccc1F [Compound 71, (S)-2-(tert-butoxy)-2-(4-(4,4-dimethylpiperidin-1-yl)-5-(2-(4-fluoro-3-methylbenzyl)-1,2,3,4-tetrahydroisoquinolin-6-yl)-2,6-dimethylpyridin-3-yl)acetic acid] | < 0.1 | 
Cc1nc(C)c([C@H](OC(C)(C)C)C(=O)O)c(N2CCC(C)(C)CC2)c1-c1ccc2c(c1)CCN(Cc1ccc(F)c(C)c1C)C2 [Compound 72, (S)-2-(tert-butoxy)-2-(4-(4,4-dimethylpiperidin-1-yl)-5-(2-(4-fluoro-2,3-dimethylbenzyl)-1,2,3,4-tetrahydroisoquinolin-6-yl)-2,6-dimethylpyridin-3-yl)acetic acid] | < 0.1 | 
Cc1ccc(CN2CCc3cc(-c4c(C)nc(C)c([C@H](OC(C)(C)C)C(=O)O)c4N4CCC(C)(C)CC4)ccc3C2)c(F)c1F [Compound 73, (S)-2-(tert-butoxy)-2-(5-(2-(2,3-difluoro-4-methylbenzyl)-1,2,3,4-tetrahydroisoquinolin-6-yl)-4-(4,4-dimethylpiperidin-1-yl)-2,6-dimethylpyridin-3-yl)acetic acid] | < 0.1 | 0.007
Cc1ccc(F)c(CN2CCc3cc(-c4c(C)nc(C)c([C@H](OC(C)(C)C)C(=O)O)c4N4CCC(C)(C)CC4)ccc3C2)c1 [Compound 74, (S)-2-(tert-butoxy)-2-(4-(4,4-dimethylpiperidin-1-yl)-5-(2-(2-fluoro-5-methylbenzyl)-1,2,3,4-tetrahydroisoquinolin-6-yl)-2,6-dimethylpyridin-3-yl)acetic acid] | < 0.1 | 
Cc1cc(CN2CCc3cc(-c4c(C)nc(C)c([C@H](OC(C)(C)C)C(=O)O)c4N4CCC(C)(C)CC4)ccc3C2)cc(C)c1F [Compound 75, (S)-2-(tert-butoxy)-2-(4-(4,4-dimethylpiperidin-1-yl)-5-(2-(4-fluoro-3,5-dimethylbenzyl)-1,2,3,4-tetrahydroisoquinolin-6-yl)-2,6-dimethylpyridin-3-yl)acetic acid] | < 0.1 | 
Cc1cc(CN2CCc3cc(-c4c(C)nc(C)c([C@H](OC(C)(C)C)C(=O)O)c4N4CCC(C)(C)CC4)ccc3C2)cc(F)c1F [Compound 76, (S)-2-(tert-butoxy)-2-(5-(2-(3,4-difluoro-5-methylbenzyl)-1,2,3,4-tetrahydroisoquinolin-6-yl)-4-(4,4-dimethylpiperidin-1-yl)-2,6-dimethylpyridin-3-yl)acetic acid] | < 0.1 | 
Cc1nc(C)c([C@H](OC(C)(C)C)C(=O)O)c(N2CCC(C)(C)CC2)c1-c1ccc2c(c1)CCN(Cc1ccccc1C(C)C)C2 [Compound 77, (S)-2-(tert-butoxy)-2-(4-(4,4-dimethylpiperidin-1-yl)-5-(2-(2-isopropylbenzyl)-1,2,3,4-tetrahydroisoquinolin-6-yl)-2,6-dimethylpyridin-3-yl)acetic acid] | < 0.1 | 
Cc1cc(C)c(CN2CCc3cc(-c4c(C)nc(C)c([C@H](OC(C)(C)C)C(=O)O)c4N4CCC(C)(C)CC4)ccc3C2)cc1C [Compound 78, (S)-2-(tert-butoxy)-2-(4-(4,4-dimethylpiperidin-1-yl)-2,6-dimethyl-5-(2-(2,4,5-trimethylbenzyl)-1,2,3,4-tetrahydroisoquinolin-6-yl)pyridin-3-yl)acetic acid] | < 0.1 | 
Cc1cc(C)cc(CN2CCc3cc(-c4c(C)nc(C)c([C@H](OC(C)(C)C)C(=O)O)c4N4CCC(C)(C)CC4)ccc3C2)c1 [Compound 79, (S)-2-(tert-butoxy)-2-(5-(2-(3,5-dimethylbenzyl)-1,2,3,4-tetrahydroisoquinolin-6-yl)-4-(4,4-dimethylpiperidin-1-yl)-2,6-dimethylpyridin-3-yl)acetic acid] | < 0.1 | 
Cc1cccc(CN2CCc3cc(-c4c(C)nc(C)c([C@H](OC(C)(C)C)C(=O)O)c4N4CCC(C)(C)CC4)ccc3C2)c1C [Compound 80, (S)-2-(tert-butoxy)-2-(5-(2-(2,3-dimethylbenzyl)-1,2,3,4-tetrahydroisoquinolin-6-yl)-4-(4,4-dimethylpiperidin-1-yl)-2,6-dimethylpyridin-3-yl)acetic acid] | < 0.1 | 0.003
Cc1nc(C)c([C@H](OC(C)(C)C)C(=O)O)c(N2CCC(C)(C)CC2)c1-c1ccc2c(c1)CCN(Cc1cccc(C(C)(C)C)c1)C2 [Compound 81, (S)-2-(tert-butoxy)-2-(5-(2-(3-(tert-butyl)benzyl)-1,2,3,4-tetrahydroisoquinolin-6-yl)-4-(4,4-dimethylpiperidin-1-yl)-2,6-dimethylpyridin-3-yl)acetic acid] | < 0.1 | 
Cc1nc(C)c([C@H](OC(C)(C)C)C(=O)O)c(N2CCC(C)(C)CC2)c1-c1ccc2c(c1)CCN(Cc1cccc(F)c1C)C2 [Compound 82, (S)-2-(tert-butoxy)-2-(4-(4,4-dimethylpiperidin-1-yl)-5-(2-(3-fluoro-2-methylbenzyl)-1,2,3,4-tetrahydroisoquinolin-6-yl)-2,6-dimethylpyridin-3-yl)acetic acid] | < 0.1 | 
COc1cc(F)c(CN2CCc3cc(-c4c(C)nc(C)c([C@H](OC(C)(C)C)C(=O)O)c4N4CCC(C)(C)CC4)ccc3C2)cc1F [Compound 83, (S)-2-(tert-butoxy)-2-(5-(2-(2,5-difluoro-4-methoxybenzyl)-1,2,3,4-tetrahydroisoquinolin-6-yl)-4-(4,4-dimethylpiperidin-1-yl)-2,6-dimethylpyridin-3-yl)acetic acid] | < 0.1 | 
Cc1nc(C)c([C@H](OC(C)(C)C)C(=O)O)c(N2CCC(C)(C)CC2)c1-c1ccc2c(c1)CCN(Cc1cc(Cl)cc(Cl)c1OCc1ccccc1)C2 [Compound 85, (S)-2-(5-(2-(2-(benzyloxy)-3,5-dichlorobenzyl)-1,2,3,4-tetrahydroisoquinolin-6-yl)-4-(4,4-dimethylpiperidin-1-yl)-2,6-dimethylpyridin-3-yl)-2-(tert-butoxy)acetic acid] | < 0.1 | 
COc1cc(F)c(F)cc1CN1CCc2cc(-c3c(C)nc(C)c([C@H](OC(C)(C)C)C(=O)O)c3N3CCC(C)(C)CC3)ccc2C1 [Compound 86, (S)-2-(tert-butoxy)-2-(5-(2-(4,5-difluoro-2-methoxybenzyl)-1,2,3,4-tetrahydroisoquinolin-6-yl)-4-(4,4-dimethylpiperidin-1-yl)-2,6-dimethylpyridin-3-yl)acetic acid] | < 0.1 | 
COc1ccc(F)c(F)c1CN1CCc2cc(-c3c(C)nc(C)c([C@H](OC(C)(C)C)C(=O)O)c3N3CCC(C)(C)CC3)ccc2C1 [Compound 87, (S)-2-(tert-butoxy)-2-(5-(2-(2,3-difluoro-6-methoxybenzyl)-1,2,3,4-tetrahydroisoquinolin-6-yl)-4-(4,4-dimethylpiperidin-1-yl)-2,6-dimethylpyridin-3-yl)acetic acid] | < 0.1 | 
Cc1nc(C)c([C@H](OC(C)(C)C)C(=O)O)c(N2CCC(C)(C)CC2)c1-c1ccc2c(c1)CCN(Cc1ccccc1OCCO)C2 [Compound 88, (S)-2-(tert-butoxy)-2-(4-(4,4-dimethylpiperidin-1-yl)-5-(2-(2-(2-hydroxyethoxy)benzyl)-1,2,3,4-tetrahydroisoquinolin-6-yl)-2,6-dimethylpyridin-3-yl)acetic acid] | < 0.1 | 0.012
CCOc1cc(Cl)cc(Cl)c1CN1CCc2cc(-c3c(C)nc(C)c([C@H](OC(C)(C)C)C(=O)O)c3N3CCC(C)(C)CC3)ccc2C1 [Compound 90, (S)-2-(tert-butoxy)-2-(5-(2-(2,4-dichloro-6-ethoxybenzyl)-1,2,3,4-tetrahydroisoquinolin-6-yl)-4-(4,4-dimethylpiperidin-1-yl)-2,6-dimethylpyridin-3-yl)acetic acid] | < 0.1 | 
